Laboratory results reported in ChEMBL document CHEMBL5500403, “Discovery of a Double-Stapled Short Peptide as a Long-Acting HIV-1 Inactivator with Potential for Oral Bioavailability” (J Med Chem, 2024).
The source made the active and inactive calls. The calls are words filed in the database; no cut-off is given here. Bridge positions count the residues as written; N and C are the ends. Square brackets hold non-standard residues; d marks the D form. Peptide text beside a SMILES is read from it. S5 = C=CCCC[C@](C)(N)C(=O)O

Legend:
[1] = Cytotoxicity against human MT2 cells; format: toxicity, cell-based
[2] = test system: Human immunodeficiency virus 1; experiment: Antiviral activity against HIV-1 IIIB assessed as reduction in viral growth by measuring p24 antigen level incubated for 2 hrs by ELISA; format: functional, organism-based; conditions: Human immunodeficiency virus 1, IIIB
[3] = test system: Human immunodeficiency virus 1; experiment: Antiviral activity against HIV-1 Bal-R5 assessed as reduction in viral growth by measuring p24 antigen level incubated for 2 hrs by ELISA; format: functional, organism-based; conditions: Human immunodeficiency virus 1, Bal-R5, 2 h
[4] = test system: Human immunodeficiency virus 1; experiment: Antiviral activity against HIV-1 clinical isolate X4-89BZ167 assessed as reduction in viral growth by measuring p24 antigen level incubated for 2 hrs by ELISA; format: functional, organism-based; conditions: Human immunodeficiency virus 1, clinical isolate X4-89BZ167, 2 h
[5] = test system: Human immunodeficiency virus 1; experiment: Antiviral activity against T20-resistant HIV-1 NL4-3 harboring […] N42T and N43K mutant assessed as reduction in viral growth by measuring p24 antigen level incubated for 2 hrs by ELISA; format: functional, organism-based
[6] = AUClast in Sprague-Dawley rat at 1 mg/kg,iv administration measured upto 9 days by LC-MS/MS analysis; format: ADME, organism-based; conditions: in vivo, time < 9 day
[7] = MRT in Sprague-Dawley rat at 1 mg/kg,iv administration measured upto 9 days by LC-MS/MS analysis; format: ADME, organism-based; conditions: in vivo, time < 9 day
[8] = Elimination half life in Sprague-Dawley rat at 1 mg/kg,iv administration measured upto 9 days by LC-MS/MS analysis; format: ADME, organism-based; conditions: in vivo, time < 9 day, read-out: beta t1/2 (converted)
[9] = Total clearance in Sprague-Dawley rat at 1 mg/kg,iv administration measured upto 9 days by LC-MS/MS analysis; format: ADME, organism-based; conditions: in vivo, time < 9 day
[10] = Volume of distribution at steady state in Sprague-Dawley rat at 1 mg/kg,iv administration measured upto 9 days by LC-MS/MS analysis; format: ADME, organism-based; conditions: in vivo, time < 9 day, read-out: Vdss
[11] = AUClast in Sprague-Dawley rat at 10 mg/kg,iv administration measured upto 9 days by LC-MS/MS analysis; format: ADME, organism-based; conditions: in vivo, time < 9 day
[12] = MRT in Sprague-Dawley rat at 10 mg/kg,iv administration measured upto 9 days by LC-MS/MS analysis; format: ADME, organism-based; conditions: in vivo, 216 h, time < 9 day
[13] = Volume of distribution at steady state in Sprague-Dawley rat at 10 mg/kg,iv administration measured upto 9 days by LC-MS/MS analysis; format: ADME, organism-based; conditions: in vivo, 216 h, time < 9 day
proteinase K = experiment: Proteolytic stability assessed as proteinase K (unknown origin) mediated compound degradation by measuring parent compound remaining incubated for 4 hrs by LC-MS/MS analysis; format: ADME; conditions: human, read-out: Stability
chymotrypsin = chymotrypsin (Homo sapiens, UniProt P17538+P40313+Q6GPI1+Q99895); experiment: Proteolytic stability assessed as Chymotrypsin (unknown origin) mediated compound degradation by measuring parent compound remaining incubated for 2 hrs by LC-MS/MS analysis; format: ADME, protein assay; conditions: read-out: Stability
[14] = Proteolytic stability assessed as Pepsin (unknown origin) mediated compound degradation incubated for 4 hrs by LC-MS/MS analysis; format: ADME; conditions: human
[15] = Drug concentration in Sprague-Dawley rat plasma at 50 mg/kg,po administrated for 5 days by LC-MS/MS analysis; format: ADME, organism-based; conditions: in vivo, 120 h, time 5 day
[16] = Drug concentration in Sprague-Dawley rat plasma at 50 mg/kg,po administrated for 15 hrs by LC-MS/MS analysis; format: ADME, organism-based; conditions: in vivo
[17] = Half life in Sprague-Dawley rat plasma at 50 mg/kg,po administrated for 15 hrs by LC-MS/MS analysis; format: ADME, organism-based
[18] = Biodistribution in Sprague-Dawley rat brain assessed as fold increase in AUC at 1 mg/kg,iv administration measured after 12 days by LC-MS/MS analysis; format: ADME, organism-based; conditions: in vivo, 288 h, time 12 day
[19] = Biodistribution in Sprague-Dawley rat testis assessed as fold increase in AUC at 1 mg/kg,iv administration measured after 12 days by LC-MS/MS analysis; format: ADME, organism-based; conditions: in vivo, 288 h, time 12 day
[20] = Biodistribution in Sprague-Dawley rat spleen assessed as fold increase in AUC at 1 mg/kg,iv administration measured after 12 days by LC-MS/MS analysis; format: ADME, organism-based; conditions: in vivo, 288 h, time 12 day
[21] = Biodistribution in Sprague-Dawley rat lymph node assessed as fold increase in AUC at 1 mg/kg,iv administration measured after 12 days by LC-MS/MS analysis; format: ADME, organism-based; conditions: in vivo, 288 h, time 12 day
[22] = Biodistribution in Sprague-Dawley rat intestine assessed as fold increase in AUC at 1 mg/kg,iv administration measured after 12 days by LC-MS/MS analysis; format: ADME, organism-based; conditions: in vivo, 288 h, time 12 day
[23] = Toxicity in female BALB/c mouse assessed as change in body weight at 100 mg/kg,iv administration measured upto 14 days; format: organism-based; conditions: in vivo, 336 h, time < 14 day
[24] = Toxicity in BALB/c mouse assessed as change in serum ALT level at 100 mg/kg,iv administration measured upto 6 days; format: organism-based; conditions: in vivo, 144 h, time < 6 day
[25] = Toxicity in BALB/c mouse assessed as histopathological change in liver at 100 mg/kg,iv administration measured after 14 days by hematoxylin and eosin staining based assay; format: organism-based; conditions: in vivo, 336 h, time 14 day
[26] = Toxicity in BALB/c mouse assessed as histopathological change in kidney at 20 mg/kg,iv administration measured after 14 days by hematoxylin and eosin staining based assay; format: organism-based; conditions: in vivo, 336 h, time 14 day
[27] = Toxicity in BALB/c mouse assessed as histopathological change in kidney at 100 mg/kg,iv administration measured after 14 days by hematoxylin and eosin staining based assay; format: organism-based; conditions: in vivo, 336 h, time 14 day
[28] = Toxicity in Sprague-Dawley rat assessed as change in body weight at 50 mg/kg,iv administration measured upto 14 days; format: organism-based; conditions: in vivo, 336 h, time < 14 day
[29] = Toxicity in Sprague-Dawley rat assessed as histopathological change in kidney at 50 mg/kg,iv administration measured after 14 days by hematoxylin and eosin staining based assay; format: organism-based; conditions: in vivo, 336 h, time 14 day
[30] = Toxicity in Sprague-Dawley rat assessed as cell degeneration in kidney at 50 mg/kg,iv administration measured after 14 days by hematoxylin and eosin staining based assay; format: organism-based; conditions: in vivo, 336 h, time 14 day
[31] = Toxicity in Sprague-Dawley rat assessed as necrosis in kidney at 50 mg/kg,iv administration measured after 14 days by hematoxylin and eosin staining based assay; format: organism-based; conditions: in vivo, 336 h, time 14 day
[32] = Toxicity in Sprague-Dawley rat assessed as change in serum ALT level at 50 mg/kg,iv administration measured upto 6 days; format: organism-based; conditions: in vivo, 144 h, time < 6 day
[33] = test system: Human immunodeficiency virus 1; experiment: Binding affinity to cytoplasmic LLP1 domain of HIV-1 GP41 by ELISA
[34] = test system: Human immunodeficiency virus 1; experiment: Antiviral activity against HIV-1 IIIB infected in human MT2 cells assessed as inhibition of viral growth at 5 uM preincubation of compound with 10% HSA; format: functional, organism-based
[35] = test system: Human immunodeficiency virus 1; experiment: Antiviral activity against HIV-1 Bal-R5 infected in human CEMx174 5.25M7 cells assessed as inhibition of viral growth pretreated with virus for 30 mins followed by infection with cells incubated for 72 hrs by ELISA; format: functional, organism-based; conditions: Human immunodeficiency virus 1, Bal-R5, CEMx174 5.25M7

`CC(=O)NCC(=O)N[C@@]1(C)CCC/C=C\CCC[C@@](C)(C(=O)N[C@@H](Cc2ccc(O)cc2)C(=O)N[C@@H](CC(C)C)C(=O)N[C@@]2(C)CCC/C=C\CCC[C@@](C)(C(=O)N[C@@H](Cc3ccc(O)cc3)C(=O)N[C@@H](Cc3c[nH]c4ccccc34)C(N)=O)NC(=O)[C@H](CC(C)C)NC(=O)[C@H](CC(C)C)NC(=O)[C@H](CC(N)=O)NC2=O)NC(=O)[C@H](CC(C)C)NC(=O)[C@H](C)NC(=O)[C@H](CCC(=O)O)NC1=O` (Ac-G[S5]EAL[S5]YL[S5]NLL[S5]YW-NH2; staple (Z) 2-6, 9-13) gave a CC50 [1] of 5.07 µM, an EC50 [2] of 0.00821 µM and an EC50 [3] of 36.7 µM. It also gave an EC50 [4] of 0.0444 µM, an EC50 [5] of 0.114 µM and an AUC(0-t) at 216 h [6] of 40.4 µg·h/mL. For the same compound, the MRT [7] was 71.1 h, the half-life [8] was over 70 h and the clearance [9] was 0.0186 L/h/kg. It also gave a Vd [10] of 2.32 L/kg, an AUC(0-t) at 216 h [11] of 334 µg·h/mL and an MRT [12] of 89.1 h. The Vdss [13] was 3.6489 L/kg, the remaining at 4 h (proteinase K) was 89.6% and the remaining at 2 h (chymotrypsin) was over 56.8%. The Stability [14] was “Stable”, the Drug uptake [15] was “Active” and the Drug uptake [16] was “Active”. The half-life [17] was 41.2 h, the “fold change (FC)” value [18] was 5 and the “fold change (FC)” value [19] was 15. For the same compound, the “fold change (FC)” value [20] was 10, the “fold change (FC)” value [21] was 10 and the “fold change (FC)” value [22] was 10. For the same compound, the Activity [23] was “Non-Toxic”, the Activity [24] was “Non-Toxic” and the Activity [25] was “Non-Toxic”. The Activity [26] was “Non-Toxic”, the Activity [27] was “Non-Toxic” and the Activity [28] was “Non-Toxic”. For the same compound, the Activity [29] was “Non-Toxic”, the Activity [30] was “Non-Toxic” and the Activity [31] was “Non-Toxic”. The Activity [32] was “Non-Toxic”, the Activity [33] was “Dose-Dependent Effect” and the Activity [34] was “Active”. For the same compound, the IC50 [35] was 0.18 µM.
